Assay results: US7919508B2, “3-piperidinylisochroman-5-ols as dopamine agonists” (Aventis Pharmaceuticals Inc., priority 2004, dated 2011)
Structures can show the parent of a compound that is named as a salt. Where two headings read alike, the source gives them in different places.

Assays:
D1 receptor = molecular target: T1, D1 receptor (Homo sapiens, UniProt P21728); assay: D1 Activation Adenylyl Cyclase Assay (cAMP FlashPlate, D1 transfected CHO cell line); type: cell-based
T1 construct: expressed in transfected cells; host or cells: D1 transfected CHO cell line
T1 sequence (P21728 whole entry): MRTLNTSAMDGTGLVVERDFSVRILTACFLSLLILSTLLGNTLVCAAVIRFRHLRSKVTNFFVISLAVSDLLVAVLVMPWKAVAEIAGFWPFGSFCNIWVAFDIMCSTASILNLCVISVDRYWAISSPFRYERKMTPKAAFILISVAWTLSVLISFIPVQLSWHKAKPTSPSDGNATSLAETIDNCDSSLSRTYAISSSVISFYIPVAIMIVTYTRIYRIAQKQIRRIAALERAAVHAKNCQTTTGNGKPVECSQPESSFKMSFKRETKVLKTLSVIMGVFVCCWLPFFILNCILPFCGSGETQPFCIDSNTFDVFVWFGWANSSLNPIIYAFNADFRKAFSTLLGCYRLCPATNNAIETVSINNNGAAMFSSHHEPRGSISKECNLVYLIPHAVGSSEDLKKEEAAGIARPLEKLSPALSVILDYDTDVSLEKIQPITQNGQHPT
In short: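 D1-transfected CHO cells (50,000/well) were exposed to compound 1/10 serial dilutions for 8 min at RT; cAMP measured by competitive 125I-cAMP FlashPlate against a standard curve. Response normalised between basal and saturating D1 agonist; EC50 at half-maximal stimulation, plateau reported as % maximal dopamine stimulation.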

[1] = molecular target: human dopamine D2Long (D2L) receptors (Homo sapiens, UniProt P14416)
human dopamine D2Long (D2L) receptors, sequence (P14416 whole entry): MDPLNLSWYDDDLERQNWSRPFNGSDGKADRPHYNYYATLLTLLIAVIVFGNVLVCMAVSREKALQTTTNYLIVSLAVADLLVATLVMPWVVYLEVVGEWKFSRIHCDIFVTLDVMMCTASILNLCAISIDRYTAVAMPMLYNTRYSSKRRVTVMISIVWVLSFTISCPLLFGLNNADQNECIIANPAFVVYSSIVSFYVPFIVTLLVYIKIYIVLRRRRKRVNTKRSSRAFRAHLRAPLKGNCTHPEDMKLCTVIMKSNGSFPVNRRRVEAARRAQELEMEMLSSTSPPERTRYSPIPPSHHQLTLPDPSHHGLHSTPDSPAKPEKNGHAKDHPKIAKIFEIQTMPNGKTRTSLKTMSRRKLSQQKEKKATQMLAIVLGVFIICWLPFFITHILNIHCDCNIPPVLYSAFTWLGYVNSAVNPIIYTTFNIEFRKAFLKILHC

[2] = molecular target: T2, human dopamine D1 receptor (Homo sapiens, UniProt P21728); assay: [3H]-SCH-23390 binding to cloned human dopamine D1 receptors (CHO cell membranes)
T2 construct: A 1.4 Kb Hind III to Xho I fragment was subcloned into the vector pMMLV; expressed in transfected cells; host or cells: CHO cells, clone CHO-D1M#9 (plasmid pHD1MMLV), membranes
T2 sequence (P21728 whole entry, the tested form may be a part): as the sequence (P21728 whole entry) above

[3] = agonist activity at the D1 receptor, adenylate cyclase assay, D1 transfected CHO cell line, read-out: D1 EC50
[4] = competitive binding, [3H]-SCH-23390, cloned human D1 in CHO membranes, read-out: D1 affinity Ki

Structure (SMILES) | EC50 (D1 receptor; [3]) | Ki [1] | Ki [2, 4] | EC50 (D1 receptor) | Ki [2]
Cc1ccc2c(c1O)C[C@@H](C1CCN(CCC(C)NC(=O)c3cccs3)CC1)O[C@H]2CN (stereo partly drawn) [Example 25, Thiophene-2-carboxylic acid {3-[4-((1R,3S)-1-aminomethyl-5-hydroxy-6-methyl-isochroman-3-yl)-piperidin-1-yl]-1-methyl-propyl}-amide dihydrochloride] | 54 nM | 218 nM | 56.1 nM |  | 
Cc1ccc2c(c1O)C[C@@H](C1CCN(CCC(C)NC(=O)c3ccc(C(F)(F)F)cc3)CC1)O[C@H]2CN (stereo partly drawn) [Example 16, N-{3-[4-((1R,3S)-1-Aminomethyl-5-hydroxy-6-methyl-isochroman-3-yl)-piperidin-1-yl]-1-methyl-propyl}-4-trifluoromethyl-benzamide dihydrochloride] | 56 nM | 379 nM | 149 nM |  | 
Cc1ccc2c(c1O)C[C@@H](C1CCN(S(=O)(=O)c3ccc(C(C)(C)C)cc3)CC1)O[C@H]2CN [Example 146, (1R,3S)-1-Aminomethyl-3-[1-(4-tert-butyl-benzenesulfonyl)-piperidin-4-yl]-6-methyl-isochroman-5-ol hydrochloride] | 79 nM | 531 nM | 89 nM |  | 
Cc1ccc2c(c1O)C[C@@H](C1CCN(CCC(C)NC(=O)c3ccc4ccccc4c3)CC1)O[C@H]2CN (stereo partly drawn) [Example 19, Naphthalene-2-carboxylic acid {3-[4-((1R,3S)-1-aminomethyl-5-hydroxy-6-methyl-isochroman-3-yl)-piperidin-1-yl]-1-methyl-propyl}-amide dihydrochloride] | 6.1 nM | 310 nM | 158 nM |  | 
Cc1ccc2c(c1O)C[C@@H](C1CCN(CCc3cccc(Cl)c3)CC1)O[C@H]2CN [Example 107, (1R,3S)-1-Aminomethyl-3-{1-[2-(3-chloro-phenyl)-ethyl]-piperidin-4-yl}-6-methyl-isochroman-5-ol dihydrobromide] | 140 nM | ≥ 10000 nM | 926 nM |  | 
CNC[C@@H]1O[C@H](C2CCN(Cc3ccc(F)c(F)c3)CC2)Cc2c1ccc(C)c2O [Example 100, (1R,3S)-3-[1-(3,4-Difluoro-benzyl)-piperidin-4-yl]-6-methyl-1-methylaminomethyl-isochroman-5-ol dihydrochloride] | 60 nM | ≥ 100000 nM | 43.1 nM |  | 
Cc1ccc2c(c1O)C[C@@H](C1CCN(Cc3cn(C)c4ccccc34)CC1)O[C@H]2CN [Example 90, (1R,3S)-1-Aminomethyl-6-methyl-3-[1-(1-methyl-1H-indol-3-ylmethyl)-piperidin-4-yl]-isochroman-5-ol trihydrochloride] | 9 nM | 2.4 nM | 42.3 nM |  | 
COc1cccc(CN2CCC([C@@H]3Cc4c(ccc(C)c4O)[C@H](CN)O3)CC2)c1 [Example 31, (1R,3S)-1-Aminomethyl-3-[1-(3-methoxy-benzyl)-piperidin-4-yl]-6-methyl-isochroman-5-ol dihydrochloride] | 13 nM | 575 nM | 12 nM |  | 
Cc1ccc2c(c1O)C[C@@H](C1CCN(C(=O)Oc3ccc(F)cc3)CC1)O[C@H]2CN [Example 118, 4-((1R,3S)-1-Aminomethyl-5-hydroxy-6-methyl-isochroman-3-yl)-piperidine-1-carboxylic acid 4-fluoro-phenyl ester hydrochloride] |  | ≥ 10000 nM |  | 8.5 nM | 40 nM
Cc1ccc2c(c1O)C[C@@H](C1CCN(CCNC(=O)Nc3ccccc3)CC1)O[C@H]2CN [Example 193, 1-{2-[4-((1R,3S)-1-Aminomethyl-5-hydroxy-6-methyl-isochroman-3-yl)piperidin-1-yl]-ethyl}-3-phenylurea dihydrobromide] | 43 nM | 284 nM | 50 nM |  | 
Cc1ccc2c(c1O)C[C@@H](C1CCN(Cc3ccc(C(F)(F)F)cc3)CC1)O[C@H]2CN [Example 74, (1R,3S)-1-Aminomethyl-6-methyl-3-[1-(4-trifluoromethyl-benzyl)-piperidin-4-yl]-isochroman-5-ol dihydrochloride] | 6 nM | 655 nM | 57 nM |  | 
Cc1ccc2c(c1O)C[C@@H](C1CCN(CCC(C)NC(=O)c3ccc(F)cc3)CC1)O[C@H]2CN (stereo partly drawn) [Example 22, N-{3-[4-((1R,3S)-1-Aminomethyl-5-hydroxy-6-methyl-isochroman-3-yl)-piperidin-1-yl]-1-methyl-propyl}-4-fluoro-benzamide dihydrochloride] | 24 nM | 564 nM | 114 nM |  | 
Cc1ccc2c(c1O)C[C@@H](C1CCN(Cc3cc(C(F)(F)F)ccc3C(F)(F)F)CC1)O[C@H]2CN [Example 76, (1R,3S)-1-Aminomethyl-3-[1-(2,5-bis-trifluoromethyl-benzyl)-piperidin-4-yl]-6-methyl-isochroman-5-ol dihydrochloride] | 580 nM | 41 nM | 92 nM |  | 
Cc1ccc2c(c1O)C[C@@H](C1CCN(Cc3ccc(-c4ccccc4)cc3)CC1)O[C@H]2CN [Example 49, (1R,3S)-1-Aminomethyl-3-(1-biphenyl-4-ylmethyl-piperidin-4-yl)-6-methyl-isochroman-5-ol dihydrochloride] | 78 nM | 310 nM | 48.2 nM |  | 
Cc1ccc2c(c1O)C[C@@H](C1CCN(Cc3ccc(Cl)cc3Cl)CC1)O[C@H]2CN [Example 59, (1R,3S)-1-Aminomethyl-3-[1-(2,4-dichloro-benzyl)-piperidin-4-yl]-6-methyl-isochroman-5-ol dihydrochloride] | 12 nM | 443 nM | 46.2 nM |  | 
CNC[C@@H]1O[C@H](C2CCN(Cc3ccc(C)cc3)CC2)Cc2c1ccc(C)c2O [Example 101, (1R,3S)-6-Methyl-1-methylaminomethyl-3-[1-(4-methyl-benzyl)-piperidin-4-yl]-isochroman-5-ol dihydrochloride] | 33 nM | 322 nM | 92.2 nM |  | 
Cc1ccc2c(c1O)C[C@@H](C1CCN(Cc3cccc(C(F)(F)F)c3)CC1)O[C@H]2CN [Example 73, (1R,3S)-1-Aminomethyl-6-methyl-3-[1-(3-trifluoromethyl-benzyl)-piperidin-4-yl]-isochroman-5-ol dihydrochloride] | 15 nM | 431 nM | 63.5 nM |  | 
COc1ccc(S(=O)(=O)N2CCC([C@@H]3Cc4c(ccc(C)c4O)[C@H](CN)O3)CC2)cc1OC [Example 144, (1R,3S)-1-Aminomethyl-3-[1-(3,4-dimethoxy-benzenesulfonyl)-piperidin-4-yl]-6-methyl-isochroman-5-ol hydrochloride] | 3.6 nM | 602 nM | 91 nM |  | 
